Data set [1] can be described thus: Test 4: predictive test of human half life. Conditions: calculated from rat distribution volume, serum unbound fraction and Test 3-2 stability. Here is the method: Test 4: Predictive Test of Human Half Life
The present compound was intravenously administered to a rat as an aqueous solution of 0.01 mol/L hydrochloric acid. Blood was collected on 5 minutes, 15 minutes, 30 minutes, 1 hour, 2 hours, 4 hours, 6 hours, and 24 hours after the administration. Plasma was obtained from the collected blood, the drug concentration in plasma was measured by LC-MS, and the distribution volume of rat was calculated from the transition of the concentration.
The unbound fraction rate of the present compound in human or rat serum was measured by equilibrium dialysis method.
The half-life in human was calculated according to the following formula using the results of the distribution volume of rat, the unbound fraction rate in human or rat serum, and the metabolic stability in human hepatic microsome obtained in Test 3-2.

In data set [2] the target is T1, human 5-HT7 receptor (Homo sapiens (Human), UniProt P34969). The data set is described as follows: Test 2: antagonist activity for human 5-HT7 receptor (aequorin luminescence, CHO-K1 cells). The class given is cell-based. Conditions: Gα16. The gist of the method: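 CHO-K1 cells transiently co-expressed aequorin, Gα16 and the respective receptor. They were cultured overnight at 37 °C, then held 2 h at room temperature before compound addition. Luminescence changes were recorded, and inhibition was expressed against wells given 10 μmol/L endogenous ligand (set as 100%).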

In data set [3] the target is T1, human 5-HT7 receptor. The data set is described as follows: Test 1: binding activity for human 5-HT7 receptor ([3H]SB-269970, CHO cell membrane fraction). The note with it: [3H]SB-269970, room temperature 60 minutes. Here is the method:
(§1) Ki value was evaluated from dissociation constant which was calculated from saturated binding tests, and a substrate concentration, and it was used as an index for binding affinity.

Another data set has as its target human D2 receptor (Homo sapiens (Human), UniProt P14416). The data set is described as follows: Test 1: binding activity for human D2 receptor ([3H]Spiperone, CHO cell membrane fraction). Conditions: for Ki: [3H]Spiperone, room temperature 60 minutes; for D2 Ki/5-HT2A Ki / D2 Ki/5-HT7 Ki: selectivity ratio. Here is the method: as §1
Data set [4] can be described thus: Test 3-2: metabolic stability test in human hepatic microsome. The class given is in vitro ADME. Conditions: microsome 0.5 or 1.0 mg/mL, test compound 0.1 μmol/L, 30 or 60 minutes. Here is the method:
Test 3-2: Metabolic Stability Test in Human Hepatic Microsome
For more accurate evaluation of the metabolic stability in human hepatic microsome, the metabolic stability of the present compound in human hepatic microsome was evaluated at an appropriate concentration of human hepatic microsome as mentioned below. Human hepatic microsome was obtained from Xenontech. Human hepatic microsome, NADPH, and each test compound were mixed in 25 mmol/L phosphate buffer solution (pH 7.4) to reach the following concentrations as shown below, and the mixture was incubated at 37° C. for 60 minutes. • Human hepatic microsome: 0.5 or 1.0 mg/mL • NAPDH: 3.2 mmol/L • Test compound: 0.1 μmol/L
The residual ratio of a test compound in each sample after 30 or 60 minutes was measured by LC-MS, and the metabolic stability in human hepatic microsome was calculated from the following formula. Metabolic stability in human hepatic microsome (mL/min/mg protein)=−LN (residual ratio)/reaction time/concentration of human hepatic microsome

A short description of data set [5]: Test 3-1: metabolic stability test in human hepatic microsome. It counts as in vitro ADME. Conditions: microsome 0.1 mg/mL, test compound 0.1 μmol/L, 37° C., 30 minutes. The gist of the method: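 Test compound at 0.1 μmol/L incubated 30 min at 37° C with human liver microsomes 0.1 mg/mL and NADPH 3.2 mmol/L in 25 mmol/L phosphate buffer, pH 7.4. Residual compound measured by LC-MS; stability (mL/min/mg protein) = −LN(residual ratio)/30/0.1.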

The target of a further data set is hERG channel (Homo sapiens (Human), UniProt Q12809). The data set is described as follows: Test 5: inhibitory activity for hERG channel (whole cell patch clamp, hERG-CHO cells). It counts as cell-based. Conditions: for IC50: hERG-CHO cells, auto patch clamp. In short, it runs like this: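 Automated whole-cell patch clamp on CHO cells stably expressing hERG (IKr), pulses every 15 s. Each compound applied at 4 incremental concentrations. Value based on mean peak tail current from the last 3 stimulations at each concentration.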

In data set [6] the target is T2, human 5-HT2A receptor (Homo sapiens (Human), UniProt P28223). The data set is described as follows: Test 2: antagonist activity for human 5-HT2A receptor (aequorin luminescence, CHO-K1 cells). It counts as cell-based. The note with it: Gα16. The procedure: Test 2: Evaluation of Antagonist Activity for Human 5-HT2A Receptor and Human 5-HT7 Receptor
Aequorin, Gα 16 protein, and each receptor were transiently expressed in CHO-K1 cells (Chinese hamster ovary). The cells were cultivated in a CO2 incubator at 37° C. overnight, seeded into a 384-well plate, and stood at room temperature for 2 hours. Each compound dissolved in DMSO was added thereto, and changes in luminescence were measured by FDSS/μCELL drug discovery screening support system (Hamamatsu Photonics K.K.). As for antagonist activity, inhibitory activity of each compound was calculated by setting the luminescence level of wells to which 10 μmol/L endogenous ligand was added as 100%.

Data set [7] addresses T2, human 5-HT2A receptor. The data set is described as follows: Test 1: binding activity for human 5-HT2A receptor ([3H]Ketanserin, CHO cell membrane fraction). Conditions: room temperature 60 minutes. The procedure:
as §1

Data set [8] can be described thus: Test 10: hepatotoxic risk, dansyl glutathione (dGSH) trapping assay. The class given is in vitro ADME. Conditions: human hepatic microsome, 37° C., 60 minutes; N.D. means below detection limit. The procedure: Test 10: Evaluation of Hepatotoxic Risk (Dansyl Glutathione (dGSH) Trapping Assay)
The present compound was metabolized in hepatic microsome, and from the resulted metabolite, reactive metabolite which reacts with dancyl glutathione (dGSH) was detected and quantified as the following method. Measurement was carried out with a screening robot (Tecan) for metabolic reaction, and with a fluorescence detection UPLC system (Waters) for metabolite-dGSH binding concentration.
The present compound was dissolved in DMSO to prepare 10 mmol/L test compound solution. 7.6 mL of potassium phosphate buffer (500 mmol/L, pH 7.4), 1.9 mL of human hepatic microsome (Xenotech, 20 mg protein/mL), and 1.27 mL of pure water were mixed to prepare a microsome solution. To 3.78 mL of the microsome solution was added 0.67 mL of pure water to prepare a microsome (dGSH(−)) solution. To 6.48 mL of the microsome solution was added 1.14 mL of the dGSH solution (20 mmol/L) to prepare a microsome (dGSH(+)) solution. […] 33 mg of tris(2-carboxyethyl)phosphine (TECP) was dissolved in 115 mL of methanol to prepare a reaction stop solution.
12 μL of the test compound solution was mixed with 388 μL of pure water, and the mixture was dispensed in 50 μL each into 6 wells of a 96-well plate. […] To the “reaction group” and “unreacted group” was added the microsome (dGSH(+)) solution, and to the “dGSH-free group” was added the microsome (dGSH(−)) solution in 50 μL each. To the “reaction group” and “dGSH-free group” was added to the cofactor solution, and to the “unreacted group” was added pure water in 50 μL each. After incubated at 37° C. for 60 minutes, the reaction stop solution was added in 450 μL each to stop the reaction. […]
Metabolite-dGSH binding concentration was measured by the following conditions, using a fluorescence detection UPLC system. […]
Fluorescence intensity was corrected with the composition of organic solvent at the time of elution because fluorescence intensity changes depending on the composition of organic solvent.

The term IC50 denotes the concentration at which inhibition is half-maximal. The low end stands for greater potency in that assay, the high end for weaker potency in that assay. In general, Ki refers to a measure of affinity in units of concentration, obtained from inhibition or displacement. A lower Ki goes with higher affinity.

Each structure is given as a SMILES string.

Chain of hERG channel (Q12809 whole entry): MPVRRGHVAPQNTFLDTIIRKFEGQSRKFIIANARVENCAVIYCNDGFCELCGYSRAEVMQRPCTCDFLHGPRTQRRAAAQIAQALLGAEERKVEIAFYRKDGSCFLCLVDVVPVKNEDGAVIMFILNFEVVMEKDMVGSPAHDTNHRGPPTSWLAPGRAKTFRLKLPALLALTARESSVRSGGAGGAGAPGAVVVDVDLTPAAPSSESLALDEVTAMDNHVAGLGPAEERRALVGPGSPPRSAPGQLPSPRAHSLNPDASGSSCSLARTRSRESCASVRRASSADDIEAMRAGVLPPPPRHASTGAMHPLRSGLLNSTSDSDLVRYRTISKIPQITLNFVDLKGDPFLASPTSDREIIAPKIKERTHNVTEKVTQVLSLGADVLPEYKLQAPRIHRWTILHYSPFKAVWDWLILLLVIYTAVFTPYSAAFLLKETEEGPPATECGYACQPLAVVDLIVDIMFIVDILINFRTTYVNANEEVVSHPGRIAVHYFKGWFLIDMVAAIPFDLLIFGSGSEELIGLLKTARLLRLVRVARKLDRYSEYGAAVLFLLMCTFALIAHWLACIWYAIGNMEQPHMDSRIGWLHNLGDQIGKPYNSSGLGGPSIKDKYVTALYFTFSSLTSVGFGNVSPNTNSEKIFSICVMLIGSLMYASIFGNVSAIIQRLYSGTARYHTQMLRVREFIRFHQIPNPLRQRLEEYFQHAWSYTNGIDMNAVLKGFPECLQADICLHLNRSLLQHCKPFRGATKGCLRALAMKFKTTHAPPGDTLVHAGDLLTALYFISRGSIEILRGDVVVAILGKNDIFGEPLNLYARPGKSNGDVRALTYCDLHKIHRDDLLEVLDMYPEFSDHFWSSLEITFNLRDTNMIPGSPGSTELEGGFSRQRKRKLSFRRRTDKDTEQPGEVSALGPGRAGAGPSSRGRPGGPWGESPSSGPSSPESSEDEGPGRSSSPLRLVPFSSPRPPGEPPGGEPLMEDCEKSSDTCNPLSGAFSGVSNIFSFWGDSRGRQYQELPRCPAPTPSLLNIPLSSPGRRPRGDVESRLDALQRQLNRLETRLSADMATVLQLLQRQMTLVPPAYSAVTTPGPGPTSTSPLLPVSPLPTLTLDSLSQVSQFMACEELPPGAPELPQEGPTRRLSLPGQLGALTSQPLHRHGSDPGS
T1 sequence (P34969 whole entry): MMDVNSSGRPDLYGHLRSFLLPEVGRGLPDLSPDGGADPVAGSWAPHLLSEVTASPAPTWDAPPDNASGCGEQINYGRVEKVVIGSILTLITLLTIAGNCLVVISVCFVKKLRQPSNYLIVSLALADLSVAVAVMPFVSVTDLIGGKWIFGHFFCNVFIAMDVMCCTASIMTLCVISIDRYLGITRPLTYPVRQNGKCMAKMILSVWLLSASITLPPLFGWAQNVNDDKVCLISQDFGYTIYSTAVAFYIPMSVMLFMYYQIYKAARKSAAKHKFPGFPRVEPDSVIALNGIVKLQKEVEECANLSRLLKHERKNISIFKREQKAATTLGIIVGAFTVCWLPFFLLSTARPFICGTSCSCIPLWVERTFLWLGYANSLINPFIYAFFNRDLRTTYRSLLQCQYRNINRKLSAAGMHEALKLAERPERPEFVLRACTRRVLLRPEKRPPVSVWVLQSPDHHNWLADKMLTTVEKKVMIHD
Chain of human D2 receptor (P14416 whole entry): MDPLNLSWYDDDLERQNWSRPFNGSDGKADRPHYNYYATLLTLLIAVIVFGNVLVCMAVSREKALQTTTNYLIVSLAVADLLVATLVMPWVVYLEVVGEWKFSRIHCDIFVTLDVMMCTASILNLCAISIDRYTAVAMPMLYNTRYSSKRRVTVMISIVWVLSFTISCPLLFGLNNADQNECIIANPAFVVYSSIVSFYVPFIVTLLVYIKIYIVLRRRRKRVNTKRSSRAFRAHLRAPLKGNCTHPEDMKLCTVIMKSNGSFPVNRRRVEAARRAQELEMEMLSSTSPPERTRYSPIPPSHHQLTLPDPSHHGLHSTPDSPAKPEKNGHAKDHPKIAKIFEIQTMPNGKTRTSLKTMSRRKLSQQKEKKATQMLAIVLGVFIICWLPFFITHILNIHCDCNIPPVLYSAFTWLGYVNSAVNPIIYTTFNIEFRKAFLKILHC
T2 sequence (P28223 whole entry): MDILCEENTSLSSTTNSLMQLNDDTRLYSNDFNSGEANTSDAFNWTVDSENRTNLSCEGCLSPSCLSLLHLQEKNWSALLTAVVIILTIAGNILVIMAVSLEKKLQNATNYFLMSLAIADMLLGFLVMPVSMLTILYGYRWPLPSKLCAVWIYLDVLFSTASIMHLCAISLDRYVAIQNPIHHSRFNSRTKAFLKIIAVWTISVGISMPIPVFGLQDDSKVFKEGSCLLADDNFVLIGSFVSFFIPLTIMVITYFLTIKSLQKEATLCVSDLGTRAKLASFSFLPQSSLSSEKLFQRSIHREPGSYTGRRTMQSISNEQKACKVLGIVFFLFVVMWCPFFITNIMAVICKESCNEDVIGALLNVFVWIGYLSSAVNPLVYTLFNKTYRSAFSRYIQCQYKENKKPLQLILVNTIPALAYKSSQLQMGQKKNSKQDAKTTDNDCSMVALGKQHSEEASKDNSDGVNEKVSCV

Regarding `CCN(CCN1CCC(c2noc3cc(F)ccc23)CC1)S(=O)(=O)CCO` [Example 51, N-Ethyl-N-{2-[4-(6-fluoro-1,2-benzoisoxazol-3-yl)piperidin-1-yl]ethyl}-2-hydroxyethane-1-sulfonamide], the Predicted half-life in [1] is recorded as 6 h. The IC50 is 62 nM at human 5-HT7 receptor [2] and 6900 nM against hERG channel. The Ki stood at 1.9 nM at human 5-HT7 receptor [3] and 309 nM at human D2 receptor. Also, the “Metabolic stability in human hepatic microsome” value (shortened to “Metabolic stability”) in data set [4] is 0.016 mL/min/mg protein; in data set [5], less than 0.05 mL/min/mg protein.

With `CCN(CCN1CCC(c2noc3cc(F)ccc23)CC1)C(=O)[C@H](C)O` [Example 16, (2S)—N-Ethyl-N-{2-[4-(6-fluoro-1,2-benzoisoxazol-3-yl)piperidin-1-yl]ethyl}-2-hydroxypropanamide], in [1], the Predicted half-life is reported as 3 h. The “Metabolic stability” value was 0.018 mL/min/mg protein in data set [4] and less than 0.05 mL/min/mg protein in data set [5]. In addition, on hERG channel, the IC50 stood at 4800 nM.

`CCN(CCN1CCC(c2noc3cc(F)ccc23)CC1)S(=O)(=O)C(C)CO` (stereo not drawn) [Example 52]: the IC50 on human 5-HT7 receptor [2] amounted to 177 nM; against human 5-HT2A receptor [6] it was 946 nM. Moreover, the results for the Ki on human 5-HT7 receptor [3], on human D2 receptor and at human 5-HT2A receptor [7] were 333 nM, greater than 10000 nM and 298 nM, respectively. The “D2 Ki/5-HT2A Ki” value at human D2 receptor is given as greater than 34. In addition, at human D2 receptor, the “D2 Ki/5-HT7 Ki” value was greater than 30.

With `CCN(CCN1CCC(n2ccc3cc(F)ccc32)CC1)C(=O)C(C)O` (stereo not drawn) [Example 50], the IC50 at human 5-HT7 receptor [2] was 81 nM; at human 5-HT2A receptor [6], 49 nM. Further, the values for the Ki on human 5-HT7 receptor [3] and on human D2 receptor were 13.5 nM and greater than 1000 nM, respectively. Further, the “Metabolic stability” value in data set [5] was less than 0.05 mL/min/mg protein.

For the compound `CCN(CCN1CCC(c2noc3cc(F)ccc23)CC1)C(=O)C(O)CNC(C)=O` (stereo not drawn) [Example 71, 3-Acetamide-N-ethyl-N-{2-[4-(6-fluoro-1,2-benzoisoxazol-3-yl)piperidin-1-yl]ethyl}-2-hydroxypropanamide], the Metabolite-dGSH binding concentration in data set [8] came out at 0.132 µM. For the same compound, at human D2 receptor, the “D2 Ki/5-HT2A Ki” value was 99 and the “D2 Ki/5-HT7 Ki” value amounted to 36. In data set [5], the “Metabolic stability” value was less than 0.05 mL/min/mg protein. For the same compound, the “hERG inhibitory IC50 (nmol/L)/5-HT2A Ki (nmol/L)” value at hERG channel (ratio) is greater than 4452.

Consider `CCN(CCN1CCC(c2c[nH]c3ccccc23)CC1)S(=O)(=O)CCO` [Example 57], for which the IC50 at human 5-HT7 receptor [2] amounted to 100 nM; at human 5-HT2A receptor [6], 56 nM. For the same compound, the Ki at human 5-HT7 receptor [3] was 8.7 nM; at human D2 receptor, 210 nM. For the same compound, the “Metabolic stability” value in data set [5] is given as 0.06 mL/min/mg protein.

As to `CCN(CCN1CCC(c2noc3cc(F)c(C)cc23)CC1)C(=O)[C@H](C)O` [Example 13], in [8], the Metabolite-dGSH binding concentration stood at 0.214 µM. In addition, the IC50 came out at 81 nM against human 5-HT7 receptor [2] and 2900 nM against hERG channel. Further, the “Metabolic stability” value in data set [5] worked out at 0.054 mL/min/mg protein.

Consider `CCN(CCN1CCC(c2noc3cc(F)ccc23)CC1)C(=O)C1(O)CC1` [Example 24], for which, in data set [8], the Metabolite-dGSH binding concentration worked out at 7.645 µM. For the same compound, the values for the IC50 on human 5-HT7 receptor [2], at human 5-HT2A receptor [6] and against hERG channel were 41 nM, 7 nM and 5500 nM, respectively. Further, the “Metabolic stability” value in data set [5] is reported as less than 0.05 mL/min/mg protein. Moreover, at hERG channel (ratio), the “hERG inhibitory IC50 (nmol/L)/5-HT2A Ki (nmol/L)” value is reported as 5203. Besides, at hERG channel (ratio), the “hERG inhibitory IC50 (nmol/L)/5-HT7 Ki (nmol/L)” value is reported as 4988.

For the compound `CCN(CCN1CCC(c2c[nH]c3cc(F)ccc23)CC1)S(=O)(=O)CCO` [Example 62], the values for the IC50 at human 5-HT7 receptor [2] and against hERG channel were 28 nM and 5400 nM, respectively. Besides, the results for the Ki at human 5-HT7 receptor [3] and on human D2 receptor were 2.8 nM and 104 nM, respectively. Further, the “Metabolic stability” value in data set [5] was less than 0.05 mL/min/mg protein.

Consider `CCN(CCN1CCC(c2c[nH]c3ccccc23)CC1)C(=O)[C@@H](C)O` [Example 49], for which the IC50 at human 5-HT7 receptor [2] was 16 nM; against hERG channel, greater than 10000 nM. Further, the values for the Ki at human 5-HT7 receptor [3] and at human D2 receptor were 22.6 nM and greater than 1000 nM, respectively. In addition, in data set [5], the “Metabolic stability” value is on record as less than 0.05 mL/min/mg protein.

`CCN(CCN1CCC(c2noc3cc(F)c(C)cc23)CC1)S(=O)(=O)CCO` [Example 58]: the IC50 is 103 nM at human 5-HT7 receptor [2] and greater than 10000 nM against hERG channel. The results for the Ki on human 5-HT7 receptor [3] and on human D2 receptor were 19.4 nM and greater than 1000 nM, respectively. The “Metabolic stability” value in data set [5] is recorded as less than 0.05 mL/min/mg protein.

In the case of `CC(O)C(=O)N(CCN1CCC(c2noc3cc(F)ccc23)CC1)CC1CC1` (stereo not drawn) [Example 30], the results for the IC50 on human 5-HT7 receptor [2] and at hERG channel were 39 nM and 1200 nM, respectively. In addition, the Ki at human 5-HT7 receptor [3] amounted to 6.6 nM; on human D2 receptor, 153 nM. For the same compound, the “Metabolic stability” value in data set [5] is listed as less than 0.05 mL/min/mg protein.

With `CCN(CCN1CCC(c2noc3cc(F)ccc23)CC1)C(=O)CCO` [Example 17, N-Ethyl-N-{2-[4-(6-fluoro-1,2-benzoisoxazol-3-yl)piperidin-1-yl]ethyl}-3-hydroxypropanamide], the Predicted half-life in data set [1] is listed as 27 h. Further, the IC50 was 66 nM against human 5-HT7 receptor [2] and 2800 nM on hERG channel. Also, the “Metabolic stability” value in data set [4] is 0.0025 mL/min/mg protein; in data set [5] it was less than 0.05 mL/min/mg protein.

Values taken from patent US11339151B2, “Aliphatic acid amide derivative” (Sumitomo Dainippon Pharma Co., Ltd., priority 2019, dated 2022).
